{"source": "patent US9381193B2", "about": "“Contraceptive methods and compositions” (WASHINGTON UNIVERSITY, priority 2011, dated 2016)", "key": {"[1]": {"tested_on": "ESC-T cells", "assay": "EdU incorporation proliferation assay", "format": "cell-based, human", "source_text": "Other groups have shown that DHEA has anti-proliferative effects in a number of cell-lines and tissues. Thus, it was hypothesized that perhaps the PPP inhibitors prevent the proliferation of ESC-Ts and that this is an additional effect, independent of their role in decidualization inhibition. In a human uterus the stromal cells go through a cyclical oscillation between proliferation and differentiation, determined by the hormonal milieu. ESC-Ts in vitro remain in the proliferative state until they are exposed to differentiation media, which causes the cells to halt cell division and enter differentiation. Proliferation of ESC-T cells were monitored by EdU incorporation in vitro, which indicates entry into the S-phase of the cell cycle, in the absence of the differentiation hormones.\nFollowing 60 hr of the treatment indicated in the experiment, EdU was added to the culture medium at a concentration of […]. Cells were harvested and stained using the Click-iT EdU Flow Cytometry Kit (Invitrogen). Quantitative data were collected using a BD FACSCalibur flow cytometer (Becton Dickinson, San Jose, Calif.) and analyzed with FlowJo software (TreeSTar, Inc., Ashland, Oreg.). For confocal microscopy, the cells were stained on coverslips using the same protocol. Nuclei were counterstained with TOPRO-iodide (Molecular probes) at a 1:500 dilution. Cells were mounted on slides using Vectashield (Vector Labs) and visualized using a Nikon C1 microscope."}, "[2]": {"tested_on": "FVB/NJ mice", "assay": "Ovarian histology and follicle counts in DHEA-fed mice", "format": "in vivo, mouse", "conditions": "0.6% DHEA diet", "source_text": "Female FVB/NJ mice were obtained from Jackson Laboratories (Bar Harbor, Me., USA). Regular rodent chow was supplemented with DHEA at 0.01%, 0.1% and 0.6% w/w. Three-week-old mice had access to food and water ad libitum. Mice were fed control or DHEA-supplemented chow for two weeks. The Animal Studies Committee at Washington University School of Medicine reviewed and approved all animal experiments. Animals were maintained according to the Guide for the Care and Use of Laboratory Animals provided by the Institute for Laboratory Animal Research.\nFor histological evaluation, one ovary from five mice in each group was fixed in Bouin's solution, transferred to 70% ethanol then embedded in paraffin and serial sectioned at 10 microns. Every tenth section was kept and stained with hematoxylin and eosin. Follicles with visible nuclei were classified as primordial, primary, secondary or antral. Corpora lutea were also counted. Follicle counts from each classification were summed for each mouse."}}, "data": [{"compound": "C[C@]12CC[C@H](O)CC1=CC[C@@H]1[C@@H]2CC[C@]2(C)C(=O)CC[C@@H]12", "note": "[DHEA, dehydroepiandrosterone]", "values": [{"measurement": "EdU-positive nuclei vs DMSO control", "setting": "[1]; 100 μM DHEA, 50 μM 6AN", "value": "drastic decrease"}, {"measurement": "Proliferation by EdU geometric mean fluorescence intensity (flow cytometry)", "setting": "[1]; 4 independent experiments", "value": "decreases proliferation of ESC-Ts in a concentration dependent manner"}, {"measurement": "Ovarian morphology", "setting": "[2]", "value": "large cystic structures"}]}]}
